Reference: patent US20070293399A1, “SUBSTITUTED DIAMINO-1,3,5-TRIAZINES, PROCESSES FOR THEIR PREPARATION AND THEIR USE AS HERBICIDES AND CROP GROWTH REGULATORS” (Bayer CropScience AG, priority 2006, published 2007)

Columns and labels:
[1] = system: Sinapis alba, Echinochloa crus-galli, Lolium multiflorum, Stellaria media, Cyperus iria, Amaranthus retroflexus, Setaria viridis, Avena sativa, Lamium …; test: Post-emergence herbicidal action (greenhouse pot test); format: in vivo; conditions: application rate of 1 kg and less of active substance per hectare; treated at three-leaf stage; scored visually after approx. 3 to 4 weeks in comparison to untreated controls
Method: Seeds or rhizome pieces of mono- and dicotyledonous weeds were placed in sandy loam in plastic pots, covered with soil and grown in a greenhouse under good growth conditions. Three weeks after the sowing, the test plants were treated at the three-leaf stage. The inventive compounds formulated as spray powders or as emulsion concentrates were sprayed onto the green plant parts in various dosages with an application rate of from 600 to 800 l/ha of water (converted). After the test plants had been left to stand in the greenhouse under optimal growth conditions for approx. 3 to 4 weeks, the action of the preparations was scored visually in comparison to untreated controls. The inventive compositions also had good post-emergence herbicidal activity against a wide spectrum of economically important gramineous and broadleaf weeds.

[2] = system: Stellaria media, Lolium multiflorum, Amaranthus retroflexus, Sinapis alba, Avena sativa and Setaria viridis; test: Pre-emergence herbicidal action (greenhouse pot test); format: in vivo; conditions: application rate of 1 kg or less of active substance per hectare; scored visually after 3 to 4 weeks in comparison to untreated controls
Source text: Seeds or rhizome pieces of mono- and dicotyledonous weed plants were placed in sandy loam in plastic pots and covered with soil. The inventive compounds, which have been formulated in the form of wettable powders or emulsion concentrates, were then applied to the surface of the covering soil as an aqueous suspension or emulsion in different dosages with an application rate of from 600 to 800 l/ha of water (converted).

Compound: CC(=O)Nc1nc(N[C@@H]2CCCc3ccccc32)nc([C@@H](C)F)n1 [Compound 2.31]
- herbicidal action against harmful plants in the post-emergence method [1]: very good herbicidal action
- herbicidal action against harmful plants in the pre-emergence method [2]: very good herbicidal action

Compound: C[C@@H](F)c1nc(NC(=O)C(F)(F)F)nc(N[C@@H]2CCCc3ccccc32)n1 [Compound 2.32]
- herbicidal action against harmful plants in the post-emergence method [1]: very good herbicidal action
- herbicidal action against harmful plants in the pre-emergence method [2]: very good herbicidal action

Compound: CC(=O)Nc1nc(C)nc(N[C@H]2c3cc(C)ccc3C[C@@H]2C)n1 [Compound 2.33]
- herbicidal action against harmful plants in the post-emergence method [1]: very good herbicidal action
- herbicidal action against harmful plants in the pre-emergence method [2]: very good herbicidal action

Compound: C[C@@H](F)c1nc(NCCC#N)nc(N[C@@H]2CCCc3ccccc32)n1 [Compound 2.38, 3-({4-[(1R)-1-Fluoroethyl]-6-[(1R)-1,2,3,4-tetrahydronaphth-1-ylamino]-1,3,5-triazin-2-yl}amino)propanenitrile]
- herbicidal action against harmful plants in the post-emergence method [1]: very good herbicidal action
- herbicidal action against harmful plants in the pre-emergence method [2]: very good herbicidal action

Compound: C[C@@H](F)c1nc(N[C@@H]2CCCc3ccccc32)nc(N(CCC#N)CCC#N)n1 [Compound 2.39, 3,3′-({4-[(1R)-1-Fluoroethyl]-6-[(1R)-1,2,3,4-tetrahydronaphth-1-ylamino]-1,3,5-triazin-2-yl}imino)dipropanenitrile]
- herbicidal action against harmful plants in the post-emergence method [1]: very good herbicidal action
- herbicidal action against harmful plants in the pre-emergence method [2]: very good herbicidal action

Compound: Cc1ccc2c(c1)[C@H](Nc1ncnc(NC(=O)NC(C)(C)C)n1)[C@@H](C)C2 [Compound 2.43, N-(Tert-butyl)-N′-(4-{[(1R,2S)-2,6-dimethyl-2,3-dihydro-1H-inden-1-yl]amino}-1,3,5triazin-2-yl)urea]
- herbicidal action against harmful plants in the post-emergence method [1]: very good herbicidal action
- herbicidal action against harmful plants in the pre-emergence method [2]: very good herbicidal action

Compound: Cc1ccc(NC(=O)Nc2nc(N[C@@H]3CCCc4ccccc43)nc([C@@H](C)F)n2)cc1 [Compound 2.59]
- herbicidal action against harmful plants in the post-emergence method [1]: very good herbicidal action
- herbicidal action against harmful plants in the pre-emergence method [2]: very good herbicidal action

Compound: Cc1ccc(NC(=O)Nc2ncnc(NC3c4cc(C)ccc4CC3C)n2)cc1 (centres unmarked) [Compound 2.60]
- herbicidal action against harmful plants in the post-emergence method [1]: very good herbicidal action
- herbicidal action against harmful plants in the pre-emergence method [2]: very good herbicidal action

Compound: Cc1ccc2c(c1)C(Nc1nc(NC(=O)C3CC3)nc(C(C)F)n1)C(C)C2 (centres unmarked) [Compound 2.67]
- herbicidal action against harmful plants in the post-emergence method [1]: very good herbicidal action
- herbicidal action against harmful plants in the pre-emergence method [2]: very good herbicidal action

Compound: C[C@@H](F)c1nc(NC(=O)C2CC2)nc(N[C@@H]2CCCc3ccccc32)n1 [Compound 2.68]
- herbicidal action against harmful plants in the post-emergence method [1]: very good herbicidal action
- herbicidal action against harmful plants in the pre-emergence method [2]: very good herbicidal action

Compound: Cc1ccc2c(c1)C(Nc1ncnc(NC(=O)C3CC3)n1)C(C)C2 (centres unmarked) [Compound 2.75]
- herbicidal action against harmful plants in the post-emergence method [1]: very good herbicidal action
- herbicidal action against harmful plants in the pre-emergence method [2]: very good herbicidal action

Compound: Cc1ccc2c(c1)C(Nc1nc(NC(=S)NC(C)(C)C)nc(C(C)F)n1)C(C)C2 (centres unmarked) [Compound 2.76]
- herbicidal action against harmful plants in the post-emergence method [1]: very good herbicidal action
- herbicidal action against harmful plants in the pre-emergence method [2]: very good herbicidal action

Compound: Cc1ccc2c(c1)C(Nc1nc(NC(=O)NC(C)C)nc(C(C)F)n1)C(C)C2 (centres unmarked) [Compound 2.78]
- herbicidal action against harmful plants in the post-emergence method [1]: very good herbicidal action
- herbicidal action against harmful plants in the pre-emergence method [2]: very good herbicidal action

Compound: CCCCNC(=O)Nc1nc(NC2c3cc(C)ccc3CC2C)nc(C(C)F)n1 (centres unmarked) [Compound 2.87]
- herbicidal action against harmful plants in the post-emergence method [1]: very good herbicidal action
- herbicidal action against harmful plants in the pre-emergence method [2]: very good herbicidal action

Compound: CCCCCCNC(=O)Nc1nc(NC2c3cc(C)ccc3CC2C)nc(C(C)F)n1 (centres unmarked) [Compound 2.88]
- herbicidal action against harmful plants in the post-emergence method [1]: very good herbicidal action
- herbicidal action against harmful plants in the pre-emergence method [2]: very good herbicidal action

Compound: Cc1ccc2c(c1)C(Nc1nc(NC(=O)NC3CCCC3)nc(C(C)F)n1)C(C)C2 (centres unmarked) [Compound 2.101]
- herbicidal action against harmful plants in the post-emergence method [1]: very good herbicidal action
- herbicidal action against harmful plants in the pre-emergence method [2]: very good herbicidal action

Compound: Cc1ccc2c(c1)C(Nc1nc(NC(=O)NCc3ccccc3)nc(C(C)F)n1)C(C)C2 (centres unmarked) [Compound 2.103]
- herbicidal action against harmful plants in the post-emergence method [1]: very good herbicidal action
- herbicidal action against harmful plants in the pre-emergence method [2]: very good herbicidal action

Compound: COCCNC(=O)Nc1nc(NC2c3cc(C)ccc3CC2C)nc(C(C)F)n1 (centres unmarked) [Compound 2.104]
- herbicidal action against harmful plants in the post-emergence method [1]: very good herbicidal action
- herbicidal action against harmful plants in the pre-emergence method [2]: very good herbicidal action

Compound: COC(C)(C)CNC(=O)Nc1nc(NC2c3cc(C)ccc3CC2C)nc(C(C)F)n1 (centres unmarked) [Compound 2.105]
- herbicidal action against harmful plants in the post-emergence method [1]: very good herbicidal action
- herbicidal action against harmful plants in the pre-emergence method [2]: very good herbicidal action

Compound: CCOC(CNC(=O)Nc1nc(NC2c3cc(C)ccc3CC2C)nc(C(C)F)n1)OCC (centres unmarked) [Compound 2.106]
- herbicidal action against harmful plants in the post-emergence method [1]: very good herbicidal action
- herbicidal action against harmful plants in the pre-emergence method [2]: very good herbicidal action

Compound: CCOC(=O)CNC(=O)Nc1nc(NC2c3cc(C)ccc3CC2C)nc(C(C)F)n1 (centres unmarked) [Compound 2.111]
- herbicidal action against harmful plants in the post-emergence method [1]: very good herbicidal action
- herbicidal action against harmful plants in the pre-emergence method [2]: very good herbicidal action

Compound: COC(C)(C)CNC(=S)Nc1nc(NC2c3cc(C)ccc3CC2C)nc(C(C)F)n1 (centres unmarked) [Compound 2.114]
- herbicidal action against harmful plants in the post-emergence method [1]: very good herbicidal action
- herbicidal action against harmful plants in the pre-emergence method [2]: very good herbicidal action

Compound: Cc1ccc2c(c1)C(Nc1nc(NC(=O)Nc3ccccc3)nc(C(C)F)n1)C(C)C2 (centres unmarked) [Compound 2.115]
- herbicidal action against harmful plants in the post-emergence method [1]: very good herbicidal action
- herbicidal action against harmful plants in the pre-emergence method [2]: very good herbicidal action

Compound: Cc1ccc(NC(=O)Nc2nc(NC3c4cc(C)ccc4CC3C)nc(C(C)F)n2)cc1 (centres unmarked) [Compound 2.116]
- herbicidal action against harmful plants in the post-emergence method [1]: very good herbicidal action
- herbicidal action against harmful plants in the pre-emergence method [2]: very good herbicidal action

Compound: Cc1ccc2c(c1)C(Nc1nc(NC(=O)Nc3ccc(F)cc3)nc(C(C)F)n1)C(C)C2 (centres unmarked) [Compound 2.117]
- herbicidal action against harmful plants in the post-emergence method [1]: very good herbicidal action
- herbicidal action against harmful plants in the pre-emergence method [2]: very good herbicidal action

Compound: COc1ccc(NC(=O)Nc2nc(NC3c4cc(C)ccc4CC3C)nc(C(C)F)n2)cc1 (centres unmarked) [Compound 2.122]
- herbicidal action against harmful plants in the post-emergence method [1]: very good herbicidal action
- herbicidal action against harmful plants in the pre-emergence method [2]: very good herbicidal action

Compound: Cc1ccc2c(c1)C(Nc1nc(NC(=S)Nc3ccccc3)nc(C(C)F)n1)C(C)C2 (centres unmarked) [Compound 2.127]
- herbicidal action against harmful plants in the post-emergence method [1]: very good herbicidal action
- herbicidal action against harmful plants in the pre-emergence method [2]: very good herbicidal action

Compound: Cc1ccc(NC(=S)Nc2nc(NC3c4cc(C)ccc4CC3C)nc(C(C)F)n2)cc1 (centres unmarked) [Compound 2.128]
- herbicidal action against harmful plants in the post-emergence method [1]: very good herbicidal action
- herbicidal action against harmful plants in the pre-emergence method [2]: very good herbicidal action

Compound: Cc1ccc2c(c1)C(Nc1nc(NC(=S)Nc3ccc(F)cc3)nc(C(C)F)n1)C(C)C2 (centres unmarked) [Compound 2.129]
- herbicidal action against harmful plants in the post-emergence method [1]: very good herbicidal action
- herbicidal action against harmful plants in the pre-emergence method [2]: very good herbicidal action

Compound: COc1ccc(NC(=S)Nc2nc(NC3c4cc(C)ccc4CC3C)nc(C(C)F)n2)cc1 (centres unmarked) [Compound 2.130]
- herbicidal action against harmful plants in the post-emergence method [1]: very good herbicidal action
- herbicidal action against harmful plants in the pre-emergence method [2]: very good herbicidal action

Compound: Cc1ccc2c(c1)C(Nc1nc(NC(=S)NCc3ccccc3)nc(C(C)F)n1)C(C)C2 (centres unmarked) [Compound 2.131]
- herbicidal action against harmful plants in the post-emergence method [1]: very good herbicidal action
- herbicidal action against harmful plants in the pre-emergence method [2]: very good herbicidal action
